# Results as given in PubChem BioAssay (NCI).
# Several values for one entry are separate records, joined by “and”; a condition that tells them apart may be missing. Identical values can stand only once.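 Cultured in 96-well plates, cells were exposed to test compound for 48 hours across five concentrations. Abbreviation: GI50, concentration required for 50% inhibition of growth. TGI marks complete inhibition of growth.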 Activity calls are given as the source filed them. Rule as the data show it: active = GI50 below about 0.43 µM; inactive = the rest.
# Key:
# Experiment in all cases: NCI tumour cell line growth inhibition, 48 h
# [1] = system: LXFL 529 NSCLC
# [2] = system: XF 498 CNS
# [3] = system: KM20L2 colon
# [4] = system: M19-MEL melanoma
# [5] = system: DMS 114 small cell lung
# [6] = system: RXF-631 renal
# [7] = system: HOP-18 NSCLC
# [8] = system: SNB-78 CNS
SMILES,GI50 [1] [µM],TGI [1] [µM],TGI [2] [µM],TGI [3] [µM],TGI [4] [µM],TGI [5],TGI [6] [µM],TGI [7] [µM],GI50 [8],TGI [8],outcome [6],outcome [7],outcome [1],outcome [3],GI50 [5],GI50 [6] [µM],GI50 [7] [µM],GI50 [3] [µM],GI50 [4] [µM]
CC1(C)OC2OC(COC(=O)C(c3ccccc3)c3ccccc3)C3OC(C)(C)OC3C2O1 (stereo not given),> 100,> 100,99.7,> 100,> 100,> 100 µM,–,–,–,–,–,–,–,–,–,–,–,–,–
CC1CCC2c3c([nH]c4ccccc34)C3C(=O)N(c4ccccc4)C(=O)C3C2C1 (stereo not given),–,> 250,7.55,> 250,> 250,–,> 250,69.9,35.2 µM,42.2 µM and > 250 µM,–,–,–,–,–,–,–,–,–
CC1=C(C(=O)CC(=O)C(=O)Nc2ccccc2C)Sc2ccccc2N1,–,–,–,> 100,> 100,–,–,> 100,–,> 100 µM,–,–,–,–,–,–,–,–,–
O=C1c2ccoc2C(=O)c2oc(=O)ccc21,–,15.2,40,> 65.4,2.9,4.42 µM,–,36,–,42.8 µM,–,–,–,–,–,–,–,–,–
c1ccc2c(c1)[O][Sn][O]2,–,–,–,–,–,> 150 mg/L,–,–,> 150 mg/L,> 150 mg/L,inactive,inactive,inactive,inactive,8.87 mg/L,–,–,–,–
CCOC(=O)COc1cccc2occc(=O)c12,–,> 100,> 100,> 100,> 100,> 100 µM,–,–,–,> 100 µM,–,–,–,–,–,–,–,–,–
O=C(CCC(=O)C1Cc2ccccc2C1=O)Nc1cccc(C(F)(F)F)c1 (stereo not given),–,> 100,–,> 100,> 100,–,> 100,> 100,–,> 100 µM,–,–,–,–,–,–,–,–,–
CC(C)(C)c1cc(C(OCCl)(C(F)(F)F)C(F)(F)F)c2c(c1)C(C(F)(F)F)(C(F)(F)F)OC21c2ccccc2C(=O)c2ccccc21,–,> 100,> 100,> 100,> 100,> 100 µM,> 100,> 100,–,> 100 µM,–,–,–,–,–,–,–,–,–
Nc1nc(-c2ccccc2)cc(-c2cc(Cl)ccc2O)n1,–,> 100,–,> 100,–,> 100 µM,> 100,> 100,–,> 100 µM,–,–,–,–,–,–,–,–,–
O=c1c2cccc3cccc(c4n1CCCN=4)c32,–,> 100,> 100,> 100,> 100,> 100 µM,> 100,> 100,–,> 100 µM,–,–,–,–,–,–,–,–,–
COc1ccc2c3c(c(C(=O)O)oc13)C(CCC(=O)O)CC2 (stereo not given),–,> 100,> 100,> 100,–,> 100 µM,–,> 100,–,> 100 µM,–,–,–,–,–,–,–,–,–
CN(C)CCNC(=O)c1cccc2cc3ccc4ccccc4c3nc12,–,0.665,0.237,0.988,0.235,–,–,0.665,–,12.5 µM,–,–,–,–,–,–,–,–,–
Nc1c(C(=O)Nc2ccccc2O)[n+]([O-])c2ccccc2[n+]1[O-],–,> 100,–,> 100,27.7,63.5 µM,> 100,> 100,–,> 100 µM,–,–,–,–,–,–,–,–,–
O=S(=O)(Cc1ccccc1)SCc1ccccc1,–,–,–,40.1,53.9,32 µM,36.4,84.3,–,48.2 µM,–,–,–,–,–,–,–,–,–
C1CCN2CC3CONC3C2C1 (stereo not given),–,> 100,> 100,> 100,> 100,> 100 µM,–,–,–,> 100 µM,–,–,–,–,–,–,–,–,–
Cn1cc(NC(=O)c2cc(NC(=O)CCCCCCCC(=O)Nc3cc(C(=O)Nc4cc(C(=O)NCCC(=N)N)n(C)c4)n(C)c3)cn2C)cc1C(=O)NCCC(=N)N,–,28.8,56.1,> 100,16.7,11.9 µM,> 100,> 100,–,93.5 µM,–,–,–,–,–,–,–,–,–
Cc1c(C)c2ccc(OC(C)C(=O)O)cc2oc1=O (stereo not given),–,> 100,99,> 100,> 100,> 100 µM,> 100,> 100,–,> 100 µM,–,–,–,–,–,–,–,–,–
NNC(=O)N/N=C1\CNC(=O)C(=O)C1c1nc2ccccc2s1 (stereo not given),–,> 100,> 100,> 100,> 100,> 100 µM,–,–,–,> 100 µM,–,–,–,–,–,–,–,–,–
Nc1c(-c2nc3ccccc3s2)[n+]([O-])c2ccccc2[n+]1[O-],–,77.6,–,> 100,84.2,> 100 µM,–,86.2,–,> 100 µM,–,–,–,–,–,–,–,–,–
Cc1cc2c(cc1C)[n+](=O)c(C(=O)/C=C/c1ccccc1[N+](=O)[O-])c(C)n2[O-],–,> 100,37.7,> 100,> 100,49.1 µM,–,> 93.6,–,> 80.9 µM,–,–,–,–,–,–,–,–,–
CC1(C)CC(O)CC(C)(C)N1.CC1(C)CC(O)CC(C)(C)N1.CC1(C)CC(O)CC(C)(C)N1.CC1(C)CC(O)CC(C)(C)N1.Cl.[Ti],> 100,> 100,–,> 100,> 100,> 100 µM,> 100,> 100,> 100 µM,> 100 µM,–,–,–,–,> 100 µM,> 100,> 100,> 100,> 100
Nc1ncnc2sc(Nc3ccccc3)nc12,–,> 100,> 100,> 100,> 100,–,> 100,–,–,> 100 µM,–,–,–,–,–,–,–,–,–
NC(=O)C(=O)Cc1nc2ccccc2s1,–,> 100,> 100,> 100,> 100,> 100 µM,–,> 100,–,> 100 µM,–,–,–,–,–,–,–,–,–
CCOc1ccc(/C=C2/C(=O)N=C(N)N=C2N)cc1OCC,–,> 100,> 100,> 100,> 100,> 100 µM,> 100,> 100,–,> 100 µM,–,–,–,–,–,–,–,–,–
CC(=O)c1c(O)c2c([nH]c1=O)CCCC2,–,> 100,> 100,> 100,44.3,> 100 µM,59.2,> 100,–,> 100 µM,–,–,–,–,–,–,–,–,–
COc1cc2c(cc1OC)C(SC)C(=O)N(Cc1cccc(OC)c1OC)CC2 (stereo not given),–,39.5,–,> 100,22.3,5.49 µM,–,> 100,–,5.19 µM,–,–,–,–,–,–,–,–,–
O=c1[nH]c(=O)n(C2CC(O)C(O)C(CO)O2)cc1F (stereo not given),–,> 100,> 100,> 100,> 100,> 100 µM,> 100,> 100,–,> 100 µM,–,–,–,–,–,–,–,–,–
